Patent publication US7465857B1, “Glyphosate tolerant perennial ryegrass” (priority 2004, dated 2008)
Where two headings read alike, the source gives them in different places.

Tests used:
EK-2703 (BAR Lp 2703) = type: in vivo, Lolium perenne; conditions: Average June/July 1998, 9=completely green
Procedure: The mean turf color rating for the BAR LP 2703 variety in this perennial ryegrass turf trial that was seeded in the spring of 1998 (at 16 kg/ha) in Wolfheze was 7.6 in June/July 1998 (9=completely green).

BAR Lp 2703 = type: in vivo, Lolium perenne; conditions: 40 days after first application, scale 1-9, 9=perfect turf
From the text: (§1) This example provides methods and results of field trials in which the glyphosate tolerance characteristics of BAR Lp 2703 were examined and compared with Peak perennial ryegrass in Florence, S.C.
(§2) Peak and LP2703 perennial ryegrasses were overseeded at 350 lb/acre on dormant Bermuda grass base on Oct. 7, 2003. Turf quality was rated 7 times between Nov. 10, 2003 and Mar. 2, 2004. Turf quality fluctuated between 6.0 and 7.5 with changes in weather and fertilization (rated on a scale of 1-9 with 1=bare soil and 9=perfect turf).
(§3) Experimental treatments were 0, 3, 5, 6, 8, 10, and 16 ounces Roundup PROS per acre. One application of each treatment was applied on Mar. 12, 2004 to plots 3 feet wide by 6 feet long. The 3 and 6 oz/acre treatments were applied a second time on Mar. 28, 2004. There were two replications of each treatment applied to each cultivar. Applications were made in 2 gallons of water per 1000 square feet with a CO2-charged backpack sprayer.
(§4) Turf damage was rated on a scale of 0-9 with 0=no damage and 9=complete damage 7, 14, and 21 days after the first spray. Damage was not evident prior to 7 days.
(§5) The ratings shown in Table 10 were obtained 40 days after the first application of glyphosate (24 days after 2nd application).

Peak = test: Field trial Florence, S.C.: glyphosate tolerance, turf damage and turf quality; type: in vivo, perennial ryegrass; conditions: 40 days after first application, scale 1-9, 9=perfect turf
From the text: as §1, §2, §3, §4, §5

O=C(O)CNCP(=O)(O)O [Glyphosate, N-(phosphonomethyl) glycine]
Turf Color After Spraying (EK-2703 (BAR Lp 2703)): 7.6
Turf quality ratings (BAR Lp 2703; 3 oz/acre twice): 6.4
Turf quality ratings (BAR Lp 2703; 5 oz/acre): 7.3
Turf quality ratings (BAR Lp 2703; 6 oz/acre twice): 5.8
Turf quality ratings (BAR Lp 2703; 8 oz/acre): 7.8
Turf quality ratings (BAR Lp 2703; 10 oz/acre): 8.0
Turf quality ratings (BAR Lp 2703; 16 oz/acre): 6.5
Turf quality ratings (Peak; 3 oz/acre twice): 5.4
Turf quality ratings (Peak; 5 oz/acre): 6.8
Turf quality ratings (Peak; 6 oz/acre twice): 2.5
Turf quality ratings (Peak; 8 oz/acre): 7.7
Turf quality ratings (Peak; 10 oz/acre): 7.0
Turf quality ratings (Peak; 16 oz/acre): 5.9
